Assay results as given in patent publication US20100021480A1, “BIOACTIVE SUBSTANCE-BLOOD PROTEIN CONJUGATE AND STABILIZATION OF A BIOACTIVE SUBSTANCE USING THE SAME” (priority 2005, published 2010).
Like-named read-outs stand apart in the source and are kept apart here.

Key:
ICR female mice = test: Blood glucose reducing activity through intraperitoneal glucose tolerance test (IPGTT); format: in vivo; conditions: 10 nmol
Protocol: Long-acting of the blood glucose reducing effect was tested in this example to determine long-acting of the blood glucose reducing activity of Compound 35 of the present invention. As control samples for determining blood glucose reducing activity and long-acting of the activity, native Exendin-4 was used, and the activity of each peptide sample was measured by intraperitoneal glucose tolerance test (IPGTT).
ICR female mice (6 weeks old, DaehanBioLink, Korea) were employed as test animals, after being adapted in lab for 7 days. Before the test, 8 mice were picked out of each group and blood was collected from tail to measure the glucose concentration in blood using glucometer (Accucheck Sensor, Roche), and then, starved for 15 to 18 hours. […] At each determined time, blood was corrected from caudal vein and the level of glucose therein was measured with glucometer. The experiments for the determination of blood glucose reducing activity and the long-acting of the activity are summarized in Table 5.
The animal test results with respect to the long-acting of blood glucose reducing effect, when Compound 35 of the present invention, and […], were measured through IPGTT, and shown in FIGS. 1 and 2. […]

activated HSA = activated HSA (Homo sapiens, UniProt P02768)
Sequence of activated HSA (P02768 25-609): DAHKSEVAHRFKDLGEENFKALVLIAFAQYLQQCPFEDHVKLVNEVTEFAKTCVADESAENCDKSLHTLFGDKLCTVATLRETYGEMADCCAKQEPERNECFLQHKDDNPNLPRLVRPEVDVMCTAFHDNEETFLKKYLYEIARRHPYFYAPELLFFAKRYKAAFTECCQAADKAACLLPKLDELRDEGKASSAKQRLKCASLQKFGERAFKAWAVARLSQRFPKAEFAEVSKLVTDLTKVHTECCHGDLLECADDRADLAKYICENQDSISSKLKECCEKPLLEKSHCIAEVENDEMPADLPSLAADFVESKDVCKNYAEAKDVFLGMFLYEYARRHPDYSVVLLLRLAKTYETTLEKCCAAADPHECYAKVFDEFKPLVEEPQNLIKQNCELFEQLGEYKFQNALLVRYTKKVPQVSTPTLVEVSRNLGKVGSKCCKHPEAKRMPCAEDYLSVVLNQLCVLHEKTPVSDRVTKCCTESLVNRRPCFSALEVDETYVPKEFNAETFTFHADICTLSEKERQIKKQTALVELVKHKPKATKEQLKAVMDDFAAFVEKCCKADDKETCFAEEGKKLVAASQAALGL
Protocol: Such binding degree to albumin can be simply qualitatively or quantitatively measured by an in vitro analysis using a simple HPLC.
Human serum albumin (HSA, 1 mM) solution was prepared by dissolving 66.5 mg of the activated HSA prepared in Example 3 in PBS buffer solution (pH 7.2, 1 ml). Stock solutions (1 mM) of bioactive substance Compound 15 (1.8 mg/ml) and Leuprolide (1.2 mg/ml) were respectively prepared by the same method.
The stock solutions prepared in the above method were diluted with PBS buffer so that they had the compositions shown in Table 2 below thereby to prepare sample solutions (100 μl) for determination. Then, each reaction mixture was mixed and slowly shaken in an incubator for 30 min while the temperature condition of 37° C. was kept. After incubation, methanol (150 μl) was added to each sample vial, which was then voltexed for 10 min, to precipitate HSA. The precipitated albumin was spun down by centrifugation (12,000 rpm, 10° C., 10 min.) and the supernatants (50 μl) were taken and analyzed using HPLC under the same conditions.
The degree of conjugation was examined with increasing the concentration of the bioactive substance compounds at the fixed concentration of albumin.

Row | PA 20.6 min (peak area) (activated HSA; Compound 15/albumin 5/50 (μl of 1 mM stocks), PBS, 37° C., 30 min, supernatant HPLC) | PA 20.6 min/4.4M (activated HSA; Compound 15/albumin 5/50, relative to Compound 15 only) | PA 20.6 min/4.4M (activated HSA; Compound 15/albumin 10/0, Compound 15 only) | PA 20.6 min (peak area) (activated HSA; Compound 15/albumin 10/0, Compound 15 only, M: million) [M] | PA 20.6 min (peak area) (activated HSA; Compound 15/albumin 10/50 (μl of 1 mM stocks), PBS, 37° C., 30 min, supernatant HPLC) | PA 20.6 min/4.4M (activated HSA; Compound 15/albumin 10/50, relative to Compound 15 only) | PA 20.6 min (peak area) (activated HSA; Compound 15/albumin 20/50 (μl of 1 mM stocks), PBS, 37° C., 30 min, supernatant HPLC, M: million) [M] | PA 20.6 min/4.4M (activated HSA; Compound 15/albumin 20/50, relative to Compound 15 only) | PA 20.6 min (peak area) (activated HSA; Compound 15/albumin 40/50 (μl of 1 mM stocks), PBS, 37° C., 30 min, supernatant HPLC, M: million) [M] | PA 20.6 min/4.4M (activated HSA; Compound 15/albumin 40/50, relative to Compound 15 only) | PA 20.6 min (peak area) (activated HSA; Compound 15/albumin 50/40 (μl of 1 mM stocks), PBS, 37° C., 30 min, supernatant HPLC, M: million) [M] | PA 20.6 min/4.4M (activated HSA; Compound 15/albumin 50/40, relative to Compound 15 only) | PA 20.6 min (peak area) (activated HSA; Compound 15/albumin 50/50 (μl of 1 mM stocks), PBS, 37° C., 30 min, supernatant HPLC, M: million) [M] | PA 20.6 min/4.4M (activated HSA; Compound 15/albumin 50/50, relative to Compound 15 only) | binding of Compound 15 to albumin (activated HSA; binding test of albumin and Compound 15) | Substance | blood glucose reducing curve in IPGTT versus saline control (ICR female mice; subcutaneous once 10 hours before intraperitoneal glucose (2 g/kg)) | blood glucose reducing curve in IPGTT versus saline control (ICR female mice; subcutaneous once 24 hours before intraperitoneal glucose (2 g/kg))
1 |  |  |  |  |  |  |  |  |  |  |  |  |  |  |  | Exendin-4 | no significant difference | no significant difference
2 | 0 | 0 | 1.0 | 4.4 | 0 | 0 | 1.3 | 0.3 | 9.8 | 2.2 | 17.9 | 4.0 | 14.7 | 3.3 | bound | Leuprolide-GSG-Lys-[ε-AEEA-CO—(CH2)2—SH]—NH2.2TFA [Compound 15] |  | 
